Test results published in patent US12139492B2 (Endotarget Inc., priority 2021, dated 2024).
Where two headings read alike, the source gives them in different places.

How the values were obtained:
JeKo-1 cells = assay: Antiproliferative effect, MTS cell viability assay, JeKo-1 cells; assay type: cell-based; settings: JeKo-1 mantle cell lymphoma cells, read-out: IC50 (anti-proliferation) JeKO-1 cells
Summary of the method: (§1)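 Readout was MTS-derived formazan absorbance (490 nm) reflecting metabolically active cells. Treatment lasted 72 h over a 0–10 μM range (0.001, 0.01, 0.1, 1, 10 μM) in JeKo-1 and Mino B-cell malignancy cells.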

BTK = BTK (Homo sapiens, UniProt Q06187); assay: Degradation of BTK protein in Namalwa cells (Western blot; DC50, Dmax); settings: for DC50: read-out: DC50 (BTK degradation), concentration giving 50% reduction of BTK expression level; for Dmax: read-out: Dmax (BTK degradation)
Chain of BTK (Q06187 whole entry): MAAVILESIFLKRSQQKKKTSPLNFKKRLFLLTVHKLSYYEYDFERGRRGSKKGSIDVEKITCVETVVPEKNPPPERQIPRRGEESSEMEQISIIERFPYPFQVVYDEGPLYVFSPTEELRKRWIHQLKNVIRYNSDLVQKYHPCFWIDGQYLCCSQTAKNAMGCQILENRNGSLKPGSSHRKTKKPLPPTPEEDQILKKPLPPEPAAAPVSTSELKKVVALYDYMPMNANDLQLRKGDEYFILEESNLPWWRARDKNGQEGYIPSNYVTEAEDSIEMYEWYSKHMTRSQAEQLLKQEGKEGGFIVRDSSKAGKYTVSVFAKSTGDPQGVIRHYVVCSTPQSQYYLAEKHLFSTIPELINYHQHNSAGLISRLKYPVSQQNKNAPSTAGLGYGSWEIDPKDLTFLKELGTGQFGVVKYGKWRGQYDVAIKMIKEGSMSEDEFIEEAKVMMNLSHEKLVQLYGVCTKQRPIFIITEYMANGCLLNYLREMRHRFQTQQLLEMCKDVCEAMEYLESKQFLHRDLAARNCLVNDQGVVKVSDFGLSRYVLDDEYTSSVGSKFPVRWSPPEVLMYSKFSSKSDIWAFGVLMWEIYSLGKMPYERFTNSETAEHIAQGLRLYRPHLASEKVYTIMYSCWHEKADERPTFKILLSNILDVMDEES

Mino cells = assay: Antiproliferative effect, MTS cell viability assay, Mino cells; assay type: cell-based; settings: Mino mantle cell lymphoma cells, read-out: IC50 (anti-proliferation) Mino cells
Summary of the method: as §1

SMILES	DC50 (BTK; cell line not given)	Dmax (BTK)	Dmax (BTK degradation) (BTK; cell line not given)	IC50 (JeKo-1 cells; Homo sapiens)	IC50 (Mino cells; Homo sapiens, MINO)	IC50 (JeKo-1 cells)	IC50 (Mino cells)
NC1=NC=NC2C1C(c1ccc(Oc3ccccc3)cc1)=NN2C1CCN(C(=O)N2CCN(C3CN(c4ccc5c(c4)C(=O)N(C4CCC(=O)NC4=O)C5=O)C3)CC2)CC1 (stereo not drawn) [Compound 503, 5-(3-(4-(4-(4-amino-3-(4-phenoxyphenyl)-3a,7a-dihydro-1H-pyrazolo[3,4-d]pyrimidin-1-yl)piperidine-1-carbonyl)piperazin-1-yl)azetidin-1-yl)-2-(2,6-dioxopiperidin-3-yl)isoindoline-1,3-dione]	0.01 to 0.05 µM	> 75%		< 1 µM	< 1 µM		
NC1=NC=NC2C1C(c1ccc(Oc3ccccc3)cc1)=NN2C1CCN(C(=O)N2CCN(C3CN(c4ccc5c(c4)CN(C4CCC(=O)NC4=O)C5=O)C3)CC2)CC1 (stereo not drawn) [Compound 504, 3-(5-(3-(4-(4-(4-amino-3-(4-phenoxyphenyl)-3a,7a-dihydro-1H-pyrazolo[3,4-d]pyrimidin-1-yl)piperidine-1-carbonyl)piperazin-1-yl)azetidin-1-yl)-1-oxoisoindolin-2-yl)piperidine-2,6-dione]	< 0.01 µM	> 90%		< 1 µM	< 1 µM		
NC1=NC=NC2C1C(c1ccc(Oc3ccccc3)cc1)=NN2[C@@H]1CCCN(C(=O)N2CCN(C3CN(c4ccc5c(c4)C(=O)N(C4CCC(=O)NC4=O)C5=O)C3)CC2)C1 (stereo partly drawn) [Compound 505, 5-(3-(4-((3R)-3-(4-amino-3-(4-phenoxyphenyl)-3a,7a-dihydro-1H-pyrazolo[3,4-d]pyrimidin-1-yl)piperidine-1-carbonyl)piperazin-1-yl)azetidin-1-yl)-2-(2,6-dioxopiperidin-3-yl)isoindoline-1,3-dione]	0.01 to 0.05 µM	> 75%		< 1 µM	< 1 µM		
NC1=NC=NC2C1C(c1ccc(Oc3ccccc3)cc1)=NN2[C@@H]1CCCN(C(=O)N2CCN(C3CN(c4ccc5c(c4)CN(C4CCC(=O)NC4=O)C5=O)C3)CC2)C1 (stereo partly drawn) [Compound 506, 3-(5-(3-(4-((3R)-3-(4-amino-3-(4-phenoxyphenyl)-3a,7a-dihydro-1H-pyrazolo[3,4-d]pyrimidin-1-yl)piperidine-1-carbonyl)piperazin-1-yl)azetidin-1-yl)-1-oxoisoindolin-2-yl)piperidine-2,6-dione]	0.01 to 0.05 µM	> 90%		< 1 µM	< 1 µM		
Nc1ncnc2c1c(-c1ccc(Oc3ccccc3)cc1)nn2C1CCN(C(=O)C2CC(N3CCN(c4ccc5c(c4)C(=O)N(C4CCC(=O)NC4=O)C5=O)CC3)C2)CC1 (stereo not drawn) [Compound 507, 5-(4-(3-(4-(4-amino-3-(4-phenoxyphenyl)-1H-pyrazolo[3,4-d]pyrimidin-1-yl)piperidine-1-carbonyl)cyclobutyl)piperazin-1-yl)-2-(2,6-dioxopiperidin-3-yl)isoindoline-1,3-dione]	< 0.01 µM	> 90%		< 1 µM	< 1 µM		
Nc1ncnc2c1c(-c1ccc(Oc3ccccc3)cc1)nn2C1CCC(C(=O)N2CC(N3CCN(c4ccc5c(c4)C(=O)N(C4CCC(=O)NC4=O)C5=O)CC3)C2)CC1 (stereo not drawn) [Compound 511, 5-(4-(1-(4-(4-amino-3-(4-phenoxyphenyl)-1H-pyrazolo[3,4-d]pyrimidin-1-yl)cyclohexane-1-carbonyl)-152-zetidine-3-yl)piperazin-1-yl)-2-(2,6-dioxopiperidin-3-yl)isoindoline-1,3-dione]	< 0.01 µM		A (A >90%)			< 1 µM	< 1 µM
Nc1ncnc2c1c(-c1ccc(Oc3ccccc3)cc1)nn2C1CCC(C(=O)N2CC(C3CCN(c4ccc5c(c4)C(=O)N(C4CCC(=O)NC4=O)C5=O)CC3)C2)CC1 (stereo not drawn) [Compound 513, 5-(4-(1-(4-(4-amino-3-(4-phenoxyphenyl)-1H-pyrazolo[3,4-d]pyrimidin-1-yl)cyclohexane-1-carbonyl)azetidin-3-yl)piperidin-1-yl)-2-(2,6-dioxopiperidin-3-yl)isoindoline-1,3-dione]	< 0.01 µM	> 90%		< 1 µM	< 1 µM		
Nc1ncnc2c1c(-c1ccc(Oc3ccccc3)cc1)nn2C1CCC(C(=O)N2CC(C3CCN(c4ccc5c(c4)CN(C4CCC(=O)NC4=O)C5=O)CC3)C2)CC1 (stereo not drawn) [Compound 514, 3-(5-(4-(1-(4-(4-amino-3-(4-phenoxyphenyl)-1H-pyrazolo[3,4-d]pyrimidin-1-yl)cyclohexane-1-carbonyl)azetidin-3-yl)piperidin-1-yl)-1-oxoisoindolin-2-yl)piperidine-2,6-dione]	< 0.01 µM	> 90%		< 1 µM	< 1 µM		

More lines, main results first:

DC50 (BTK; cell line not given)	Dmax (BTK)	Dmax (BTK degradation) (BTK; cell line not given)	SMILES	IC50 (JeKo-1 cells; Homo sapiens)	IC50 (Mino cells; Homo sapiens, MINO)	IC50 (JeKo-1 cells)	IC50 (Mino cells)
< 0.01 µM	> 90%		Nc1ncnc2c1c(-c1ccc(Oc3ccccc3)cc1)nn2C1CCN(C(=O)C2CC(N3CCN(c4ccc5c(c4)CN(C4CCC(=O)NC4=O)C5=O)CC3)C2)CC1 (stereo not drawn) [Compound 508, 3-(5-(4-(3-(4-(4-amino-3-(4-phenoxyphenyl)-1H-pyrazolo[3,4-d]pyrimidin-1-yl)piperidine-1-carbonyl)cyclobutyl)piperazin-1-yl)-1-oxoisoindolin-2-yl)piperidine-2,6-dione]	< 1 µM	< 1 µM		
< 0.01 µM	> 90%		Nc1ncnc2c1c(-c1ccc(Oc3ccccc3)cc1)nn2C1CCN(C(=O)C2CN(C3CCN(c4ccc5c(c4)C(=O)N(C4CCC(=O)NC4=O)C5=O)CC3)C2)CC1 (stereo not drawn) [Compound 509, 5-(4-(3-(4-(4-amino-3-(4-phenoxyphenyl)-1H-pyrazolo[3,4-d]pyrimidin-1-yl)piperidine-1-carbonyl)azetidin-1-yl)piperidin-1-yl)-2-(2,6-dioxopiperidin-3-yl)isoindoline-1,3-dione]	< 1 µM	< 1 µM		
< 0.01 µM	> 90%		Nc1ncnc2c1c(-c1ccc(Oc3ccccc3)cc1)nn2C1CCN(C(=O)C2CN(C3CCN(c4ccc5c(c4)CN(C4CCC(=O)NC4=O)C5=O)CC3)C2)CC1 (stereo not drawn) [Compound 510, 3-(5-(4-(3-(4-(4-amino-3-(4-phenoxyphenyl)-1H-pyrazolo[3,4-d]pyrimidin-1-yl)piperidine-1-carbonyl)azetidin-1-yl)piperidin-1-yl)-1-oxoisoindolin-2-yl)piperidine-2,6-dione]	< 1 µM	< 1 µM		
< 0.01 µM	> 90%		Nc1ncnc2c1c(-c1ccc(Oc3ccccc3)cc1)nn2C1CCC(C(=O)N2CC(N3CCN(c4ccc5c(c4)CN(C4CCC(=O)NC4=O)C5=O)CC3)C2)CC1 (stereo not drawn) [Compound 512, 3-(5-(4-(1-(4-(4-amino-3-(4-phenoxyphenyl)-1H-pyrazolo[3,4-d]pyrimidin-1-yl)cyclohexane-1-carbonyl)azetidin-3-yl)piperazin-1-yl)-1-oxoisoindolin-2-yl)piperidine-2,6-dione]	< 1 µM	< 1 µM		
< 0.01 µM	> 90%		Nc1ncnc2c1c(-c1ccc(Oc3ccccc3)cc1)nn2[C@@H]1CCCN(CC2CCN(CC3CCN(c4ccc(C(=O)NC5CCC(=O)NC5=O)cc4)CC3)CC2)C1 (stereo partly drawn) [Compound 515, 4-(4-((4-(((R)-3-(4-amino-3-(4-phenoxyphenyl)-1H-pyrazolo[3,4-d]pyrimidin-1-yl)piperidin-1-yl)methyl)piperidin-1-yl)methyl)piperidin-1-yl)-N-(2,6-dioxopiperidin-3-yl)benzamide]	1 to 10 µM	< 1 µM		
< 0.01 µM	> 75%		Nc1ncnc2c1c(-c1ccc(Oc3ccccc3)cc1)nn2[C@@H]1CCCN(C2CCN(CC3CCN(c4ccc(C(=O)NC5CCC(=O)NC5=O)cc4)CC3)CC2)C1 (stereo partly drawn) [Compound 516, 4-(4-(((R)-3-(4-amino-3-(4-phenoxyphenyl)-1H-pyrazolo[3,4-d]pyrimidin-1-yl)-[1,4′-bipiperidin]-1′-yl)methyl)piperidin-1-yl)-N-(2,6-dioxopiperidin-3-yl)benzamide]	< 1 µM	1 to 10 µM		
< 0.01 µM	> 75%		Nc1ncnc2c1c(-c1ccc(Oc3ccccc3)cc1)nn2[C@@H]1CCCN(C2CCN(C(=O)NC3CCC(=O)NC3=O)CC2)C1 (stereo partly drawn) [Compound 517, (3R)-3-(4-amino-3-(4-phenoxyphenyl)-1H-pyrazolo[3,4-d]pyrimidin-1-yl)-N-(2,6-dioxopiperidin-3-yl)-[1,4′-bipiperidine]-1′-carboxamide]	1 to 10 µM	1 to 10 µM		
> 0.05 µM	> 75%		Nc1ncnc2c1c(-c1ccc(Oc3ccccc3)cc1)nn2[C@@H]1CCCN(CC2CCN(C(=O)NC3CCC(=O)NC3=O)CC2)C1 (stereo partly drawn) [Compound 518, 4-(((R)-3-(4-amino-3-(4-phenoxyphenyl)-1H-pyrazolo[3,4-d]pyrimidin-1-yl)piperidin-1-yl)methyl)-N-(2,6-dioxopiperidin-3-yl)piperidine-1-carboxamide]	1 to 10 µM	1 to 10 µM		
0.01 to 0.05 µM	> 75%		Nc1ncnc2c1c(-c1ccc(Oc3ccccc3)cc1)nn2[C@@H]1CCCN(CCNC(=O)NC2CCC(=O)NC2=O)C1 (stereo partly drawn) [Compound 519, 1-(2-((R)-3-(4-amino-3-(4-phenoxyphenyl)-1H-pyrazolo[3,4-d]pyrimidin-1-yl)piperidin-1-yl)ethyl)-3-(2,6-dioxopiperidin-3-yl)urea]	1 to 10 µM	> 10 µM		
0.01 to 0.05 µM	> 90%		Nc1ncnc2c1c(-c1ccc(Oc3ccccc3)cc1)nn2C1CCN(C(=O)NCCN2CCN(c3ccc4c(c3)C(=O)N(C3CCC(=O)NC3=O)C4=O)CC2)CC1 (stereo not drawn) [Compound 520, 4-(4-amino-3-(4-phenoxyphenyl)-1H-pyrazolo[3,4-d]pyrimidin-1-yl)-N-(2-(4-(2-(2,6-dioxopiperidin-3-yl)-1,3-dioxoisoindolin-5-yl)piperazin-1-yl)ethyl)piperidine-1-carboxamide]	< 1 µM	< 1 µM		
